In brackets after ≈: the same amount, converted by molar mass. Like-named read-outs stand apart in the source and are kept apart here.
Legend:
Type in all cases: cell-based
[1] = tested on: SH-SY5Y cells; assay: Neuroregeneration activity, neurite outgrowth; conditions: aphidicolin pretreated, mean ± SEM
Description: The neuroregeneration activity for the compounds of this invention was confirmed in a standard pharmacological test procedure by evaluating 1-oxo-rapamycin (Compound I) as representative compound of this invention, against SH-SY5Y cells in vitro [Gold et al., Exp Neurol 147: 269-278, 1997]. Briefly, SH-SY5Y cells were placed in 6-well plate treated with aphidicolin for 5 days followed by the test compounds using 6-well plates. For controls, wells were untreated, or treated with nerve growth factor (NGF) alone. Test wells were treated with NGF plus compound I or rapamycin. Cells were photographed at 168 hours. Analysis of neuritic lengths was performed on photographic prints using a Houston Instrument HI-PAD digitizing tablet connected to an IBM XT computer with appropriate software (Bioquant IV, R&M Biometrics, Nashville, Tenn.). Mean values for axonal areas were compared using by ANOVA (STATVIEW, Abacus Concepts, Inc., Berkeley, Calif. The following table summarizes the results that were obtained.

[2] = tested on: SW620 (colon) tumor cell line; assay: Antineoplastic activity, tumor cell growth inhibition (sulforhodamine B); conditions: 48 hours
Description: (§1) Antineoplastic activity for the compounds of this invention was confirmed by evaluating the antineoplastic activity of representative compounds of this invention (Compounds I-III) against six tumor cell lines in vitro. Briefly, tumor cells from six cell lines were placed in wells of a 96 well microtiter plate. The following tumor cell lines were used: 3T3 (ovarian), 3T3/H2N (ovarian—resistant to cis-platin), A431 (vulva epidermoid origin), SW620 (colon), SKBR3 (breast), and MDA-435 (breast). The tumors cells were grown in the presence of serial dilutions of the compound to be evaluated for 48 hours, and cell growth determined using a colorimetric procedure (sulforhrodamine B). The inhibition of growth was calculated compared to the number of cells at the time of test compound addition. Results are expressed as an IC50 (μg/ml); N/A indicates the compound was not evaluated against that cell line. The following IC50s was listed on Table 2.

[3] = tested on: MDA-435 (breast) tumor cell line; assay: as above; conditions: MDA435 cells, 48 hours
Description: as §1

[4] = tested on: SKBR3 (breast) tumor cell line; assay: as above; conditions: 48 hours
Description: as §1

[5] = tested on: 3T3 (ovarian) tumor cell line; assay: as above; conditions: 48 hours
Description: as §1

[6] = tested on: 3T3/H2N (ovarian—resistant to cis-platin) tumor cell line; assay: as above; conditions: 3T3/H2N cells, 48 hours
Description: as §1

[7] = tested on: A431 (vulva epidermoid origin) tumor cell line; assay: as above; conditions: 48 hours
Description: as §1

[8] = tested on: C. tropicalis GC 3080; assay: Antifungal activity, microtiter broth dilution MIC; conditions: 24-48 hours
Method: (§2) The antifungal activity for the 1-oxorapamycins of this invention was confirmed in a standard pharmacological test procedure which measured the ability of the compound being evaluated to inhibit fungal growth. 1-Oxorapamycin (Compound I), 1-oxorapamycin 42-ester with 3-hydroxy-2-(hydroxymethyl)-2-methylpropionic acid (Compound II), and 42-O-(2-hydroxy)ethyl 1-oxorapamycin (Compound III) were evaluated as representative compounds of this invention. The procedure used and results obtained are briefly described below. A 96 U-bottom microtiter plate was filled (50 μl/well) with RPMI 1640. The compounds to be evaluated were placed in appropriate wells, and serial diluted in successive wells to provide 11 dilutions. The concentrations ranged from 64 through 0.06 μg/ml. An adjusted inoculum of fungi (50 μl) was added to each well and the plates were incubated at 35° C. for 24-48 hours. […] Nystatin and rapamycin were used for the purpose of comparison.

[9] = tested on: C. albicans GC 3065; assay: Antifungal activity, microtiter broth dilution MIC; conditions: 24-48 hours
Method: as §2

[10] = tested on: C. albicans GC 3064; assay: Antifungal activity, microtiter broth dilution MIC; conditions: 24-48 hours
Method: as §2

[11] = tested on: C. pseudotropicalis 3070; assay: Antifungal activity, microtiter broth dilution MIC; conditions: RPMI 1640, 35° C., 24-48 hours
Method: as §2

[12] = tested on: C. krussii GC 3067; assay: Antifungal activity, microtiter broth dilution MIC; conditions: RPMI 1640, 35° C., 24-48 hours
Method: as §2

[13] = tested on: C. albicans GC 3066; assay: Antifungal activity, microtiter broth dilution MIC; conditions: 24-48 hours
Method: as §2

[14] = tested on: C. parapsilosis GC 3076; assay: Antifungal activity, microtiter broth dilution MIC; conditions: 24-48 hours
Method: as §2

[15] = tested on: C. lusitaniae GC 3068; assay: Antifungal activity, microtiter broth dilution MIC; conditions: RPMI 1640, 35° C., 24-48 hours; for MIC: Clavispora lusitaniae
Method: as §2

[16] = tested on: A. niger GC 3091; assay: Antifungal activity, microtiter broth dilution MIC; conditions: 24-48 hours
Method: as §2

[17] = tested on: A. niger GC 6591; assay: Antifungal activity, microtiter broth dilution MIC; conditions: 24-48 hours
Method: as §2

[18] = tested on: A. fumigatus GC 3092; assay: Antifungal activity, microtiter broth dilution MIC
Method: as §2

[19] = tested on: C. parapsilosis GC 3074; assay: Antifungal activity, microtiter broth dilution MIC; conditions: 24-48 hours
Method: as §2

[20] = tested on: C. parapsilosis GC 3075; assay: Antifungal activity, microtiter broth dilution MIC; conditions: 24-48 hours
Method: as §2

[21] = tested on: C. tropicalis GC 3081; assay: Antifungal activity, microtiter broth dilution MIC; conditions: 24-48 hours
Method: as §2

Compound: CO[C@H]1CC2CC[C@@H](C)[C@@](O)(O2)C(=O)C(=O)N2CCCC[C@H]2C(=O)O[C@H]([C@H](C)CC2CC[C@@H](O)[C@H](OC)C2)CC(=O)[C@H](C)/C=C(\C)[C@@H](O)[C@@H](OC)C(=O)[C@H](C)C[C@H](C)C(=O)C/C=C/C=C/1C (some centres unmarked) [Compound I, 1-Oxo-rapamycin]
- Mean Neurite Lengths after 168 h, Neurite Length ([1]; NGF plus test compound): 233.7 ± 8.8 μm
- IC50 ([2]; Homo sapiens, SW-620, SW620 cells): 12.7 µg/mL (≈ 13.7 µM)
- IC50 [3]: 6 µg/mL (≈ 6.45 µM)
- IC50 ([4]; Homo sapiens, SK-BR-3, SKBR3 cells): 3.6 µg/mL (≈ 3.87 µM)
- IC50 ([5]; Mus musculus, NIH3T3, 3T3 cells): 0.89 µg/mL (≈ 0.957 µM)
- IC50 [6]: 2.3 µg/mL (≈ 2.47 µM)
- IC50 ([7]; Homo sapiens, A-431, A431 cells): 6.2 µg/mL (≈ 6.67 µM)
- MIC ([8]; Candida tropicalis, GC3080, RPMI 1640, 35° C.): 2 µg/mL (≈ 2.15 µM)
- MIC ([9]; Candida albicans, GC3065, RPMI 1640, 35° C.): 2 µg/mL (≈ 2.15 µM)
- MIC ([10]; Candida albicans, GC3064, RPMI 1640, 35° C.): 8 µg/mL (≈ 8.6 µM)
- MIC ([11]; Kluyveromyces marxianus): 0.5 µg/mL (≈ 0.538 µM)
- MIC [12]: 16 µg/mL (≈ 17.2 µM)
- MIC ([13]; Candida albicans, GC3066, RPMI 1640, 35° C.): 2 µg/mL (≈ 2.15 µM)
- MIC ([14]; Lodderomyces parapsilosis, GC3076, RPMI 1640, 35° C.): 2 µg/mL (≈ 2.15 µM)
- MIC ([15]; GC3068, C. lusitaniae GC 3068, first listing (r26), read-out: ANTIFUNGAL ACTIVITY (MIC)): 0.5 µg/mL (≈ 0.538 µM)
- MIC ([15]; GC3068, read-out: ANTIFUNGAL ACTIVITY (MIC), C. lusitaniae GC 3068, second listing (r28)): 2 µg/mL (≈ 2.15 µM)
- MIC ([16]; Aspergillus niger, GC3091, RPMI 1640, 35° C.): 64 µg/mL (≈ 68.8 µM)
- MIC ([17]; Aspergillus niger, GC6591, RPMI 1640, 35° C.): 64 µg/mL (≈ 68.8 µM)
- MIC ([18]; Aspergillus fumigatus, GC3092, read-out: ANTIFUNGAL ACTIVITY (MIC)): 64 µg/mL (≈ 68.8 µM)
- MIC ([19]; Lodderomyces parapsilosis, GC3074, RPMI 1640, 35° C.): 2 µg/mL (≈ 2.15 µM)
- MIC ([20]; Lodderomyces parapsilosis, GC3075, RPMI 1640, 35° C.): 1 µg/mL (≈ 1.08 µM)
- MIC ([21]; Candida tropicalis, GC3081, RPMI 1640, 35° C.): 0.5 µg/mL (≈ 0.538 µM)

Compound: CO[C@H]1CC2CC[C@@H](C)[C@@](O)(O2)C(=O)C(=O)N2CCCC[C@H]2C(=O)O[C@H]([C@H](C)CC2CC[C@@H](OC(=O)C(C)(CO)CO)[C@H](OC)C2)CC(=O)[C@H](C)/C=C(\C)[C@@H](O)[C@@H](OC)C(=O)[C@H](C)C[C@H](C)C(=O)C/C=C/C=C/1C (some centres unmarked) [Compound II, 1-Oxorapamycin 42-ester with 3-Hydroxy-2-(hydroxymethyl)-2-methylpropionic acid]
- Antineoplastic Activity (IC50) ([2]; SW620 cells): 8.7 µg/mL
- Antineoplastic Activity (IC50) [3]: 2.8 µg/mL
- Antineoplastic Activity (IC50) ([4]; SKBR3 cells): 1.7 µg/mL
- Antineoplastic Activity (IC50) ([5]; 3T3 cells): 0.84 µg/mL
- Antineoplastic Activity (IC50) [6]: 3.0 µg/mL
- Antineoplastic Activity (IC50) ([7]; A431 cells): 5.5 µg/mL
- ANTIFUNGAL ACTIVITY (MIC) ([8]; RPMI 1640, 35° C.): 1 µg/mL
- ANTIFUNGAL ACTIVITY (MIC) ([9]; RPMI 1640, 35° C.): 2 µg/mL
- ANTIFUNGAL ACTIVITY (MIC) ([10]; RPMI 1640, 35° C.): 8 µg/mL
- ANTIFUNGAL ACTIVITY (MIC) [11]: 0.50 µg/mL
- ANTIFUNGAL ACTIVITY (MIC) [12]: 16 µg/mL
- ANTIFUNGAL ACTIVITY (MIC) ([13]; RPMI 1640, 35° C.): 2 µg/mL
- ANTIFUNGAL ACTIVITY (MIC) ([14]; RPMI 1640, 35° C.): 1 µg/mL
- ANTIFUNGAL ACTIVITY (MIC) ([15]; C. lusitaniae GC 3068, first listing (r26)): 1 µg/mL
- ANTIFUNGAL ACTIVITY (MIC) ([15]; C. lusitaniae GC 3068, second listing (r28)): 1 µg/mL
- ANTIFUNGAL ACTIVITY (MIC) ([16]; RPMI 1640, 35° C.): 32 µg/mL
- ANTIFUNGAL ACTIVITY (MIC) ([17]; RPMI 1640, 35° C.): 64 µg/mL
- ANTIFUNGAL ACTIVITY (MIC) ([18]; A. fumigatus GC 3092, RPMI 1640, 35° C., 24-48 hours): 64 µg/mL
- ANTIFUNGAL ACTIVITY (MIC) ([19]; RPMI 1640, 35° C.): 2 µg/mL
- ANTIFUNGAL ACTIVITY (MIC) ([20]; RPMI 1640, 35° C.): 2 µg/mL
- ANTIFUNGAL ACTIVITY (MIC) ([21]; RPMI 1640, 35° C.): 0.50 µg/mL

Compound: NGF: nerve growth factor (NGF), control treatment alone and co-treatment in neurite test
- Mean Neurite Lengths after 168 h, Neurite Length ([1]; NGF alone (control)): 196.5 ± 7.7 μm

Reference: US6399625B1, “1-oxorapamycins” (Wyeth, priority 2000, dated 2002)
